From ChEMBL document CHEMBL1201862, “PubChem BioAssay data set” (2004)
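A five-concentration, 48-hour dose response in 96-well plates underlies each endpoint, interpolated linearly between surrounding concentrations. Here, GI50 denotes the concentration required for 50% inhibition of growth.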 Calls of active or inactive are those of the source. Cut-off read from the data, not from the text of the source: active = GI50 up to about 1.1 µM and inactive = higher.

Assays:
Assay in all cases: DTP human tumour cell line panel, 48 h
UACC-257 = test system: UACC-257
MOLT-4 = test system: MOLT-4
NCI-H226 = test system: NCI-H226
SW-620 = test system: SW-620
MDA-N = test system: MDA-N
EKVX = test system: EKVX
HCT-15 = test system: HCT-15
786-0 = test system: 786-0
UACC-62 = test system: UACC-62
ACHN = test system: ACHN
HOP-62 = test system: HOP-62
OVCAR-3 = test system: OVCAR-3
OVCAR-4 = test system: OVCAR-4
MDA-MB-435 = test system: MDA-MB-435
HCC 2998 = test system: HCC 2998
HT-29 = test system: HT-29
UO-31 = test system: UO-31
LOX IMVI = test system: LOX IMVI
TK-10 = test system: TK-10
RPMI-8226 = test system: RPMI-8226

| SMILES | GI50 (UACC-257) | GI50 (MOLT-4) | GI50 (NCI-H226) | GI50 (SW-620) | GI50 (MDA-N) | GI50 (EKVX) | GI50 (HCT-15) [µM] | GI50 (786-0) | GI50 (UACC-62) | GI50 (ACHN) | GI50 (HOP-62) | GI50 (OVCAR-3) | GI50 (OVCAR-4) | GI50 (MDA-MB-435) | GI50 (HCC 2998) | GI50 (HT-29) | GI50 (UO-31) | GI50 (LOX IMVI) | GI50 (TK-10) | GI50 (RPMI-8226) |
| --- | --- | --- | --- | --- | --- | --- | --- | --- | --- | --- | --- | --- | --- | --- | --- | --- | --- | --- | --- | --- |
| CC(=O)NC1(c2cc3ccccc3s2)CCCCCC1 | 40 µM (inactive) | 18.5 µM (inactive) | 42.3 µM (inactive) | 47.1 µM (inactive) | 48.4 µM (inactive) | 19.1 µM (inactive) | 33.7 | 34.7 µM (inactive) | 31.3 µM (inactive) | 43.9 µM (inactive) | 46.7 µM (inactive) | 21.6 µM (inactive) | 38.5 µM (inactive) | 35.5 µM (inactive) | 61.2 µM (inactive) | 34.3 µM (inactive) | 37.2 µM (inactive) | 47.9 µM (inactive) | 47.5 µM (inactive) | – |
| CC/C(C)=C1\OC(=O)C(C)C(O)C(Cc2cccnc2)NC(=O)C(NC(=O)c2ncccc2O)C(C)OC1=O (stereo not drawn) | > 100 µM (inactive) | 53.6 µM (inactive) | – | > 100 µM (inactive) | > 100 µM (inactive) | 31.3 µM (inactive) | 49.5 | > 100 µM (inactive) | > 100 µM (inactive) | 6.7 µM (inactive) | 51.1 µM (inactive) | > 100 µM (inactive) | > 100 µM (inactive) | > 100 µM (inactive) | > 100 µM (inactive) | 42.2 µM (inactive) | – | > 100 µM (inactive) | > 100 µM (inactive) | 90.8 µM (inactive) |
| NCCCN1CCN(CCCNc2ccc3ncn4c5ccccc5c(=O)c2c34)CC1 | 5.97 µM (inactive) | 1.11 µM (active) | – | 1.32 µM (inactive) | 1.45 µM (inactive) | 2.85 µM (inactive) | 4.4 | 1.29 µM (inactive) | 2.14 µM (inactive) | 1.49 µM (inactive) | 1.71 µM (inactive) | 4.07 µM (inactive) | 0.728 µM (active) | 1.46 µM (inactive) | 0.789 µM (active) | 1.13 µM (inactive) | 5.28 µM (inactive) | 0.875 µM (active) | 4.2 µM (inactive) | 1.52 µM (inactive) |
| C=CC[C@@H]1C(=O)[C@@]2(O[Si](C(C)C)(C(C)C)C(C)C)CC[C@@H]1C[C@H]2NC(=O)OCC(Cl)(Cl)Cl | 43.8 µM (inactive) | > 100 µM (inactive) | > 100 µM (inactive) | > 100 µM (inactive) | 77.1 µM (inactive) | – | 91.6 | 77.1 µM (inactive) | > 100 µM (inactive) | 73.8 µM (inactive) | > 100 µM (inactive) | 90.8 µM (inactive) | > 100 µM (inactive) | > 100 µM (inactive) | 43.2 µM (inactive) | > 100 µM (inactive) | 56.5 µM (inactive) | 41.5 µM (inactive) | > 100 µM (inactive) | – |
| [O-][s+]1c2c(Cc3ccccc3)c(Cc3ccccc3)c1CCc1cccc(c1)CC2 | 14.1 µM (inactive) | 14 µM (inactive) | 19.1 µM (inactive) | 24.5 µM (inactive) | 14.1 µM (inactive) | 13.2 µM (inactive) | 12.9 | 15.2 µM (inactive) | 10.9 µM (inactive) | 16.7 µM (inactive) | – | 11.1 µM (inactive) | 5.02 µM (inactive) | 12.9 µM (inactive) | 14.1 µM (inactive) | 11.9 µM (inactive) | 12.9 µM (inactive) | 14 µM (inactive) | 19.1 µM (inactive) | – |
| [N-]=[N+]=NC1=C(c2ccccc2)C(=O)c2cccc3cccc1c23 | 12.9 µM (inactive) | 2.55 µM (inactive) | – | 29.9 µM (inactive) | 12.2 µM (inactive) | – | 17.8 | 15.2 µM (inactive) | 5.86 µM (inactive) | 6.01 µM (inactive) | 15.2 µM (inactive) | 16.4 µM (inactive) | 46.7 µM (inactive) | 68.4 µM (inactive) | 11.4 µM (inactive) | 6.56 µM (inactive) | 26.1 µM (inactive) | 14.4 µM (inactive) | 23.2 µM (inactive) | 7 µM (inactive) |
| O=C(O)c1ccc(Nc2nc3ccccc3nc2C(=O)O)cc1 | > 100 µM (inactive) | > 100 µM (inactive) | – | – | > 100 µM (inactive) | > 100 µM (inactive) | – | > 100 µM (inactive) | > 100 µM (inactive) | > 100 µM (inactive) | > 100 µM (inactive) | > 100 µM (inactive) | > 100 µM (inactive) | > 100 µM (inactive) | > 100 µM (inactive) | > 100 µM (inactive) | > 100 µM (inactive) | – | > 100 µM (inactive) | > 100 µM (inactive) |
| COc1cc(Br)cc2c1O[C@H]1C(=O)CC3CC21CCN3C (stereo partly drawn) | 35.8 µM (inactive) | 25 µM (inactive) | – | 30.5 µM (inactive) | 66.2 µM (inactive) | 61 µM (inactive) | 54.1 | 51.6 µM (inactive) | > 100 µM (inactive) | 57.1 µM (inactive) | > 100 µM (inactive) | > 100 µM (inactive) | – | 52.2 µM (inactive) | 34.1 µM (inactive) | 42.2 µM (inactive) | 34.9 µM (inactive) | 32.9 µM (inactive) | – | 21.8 µM (inactive) |
